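Grown in 96-well plates, cells were treated for 48 hours with each compound at five concentrations. Insufficient inhibition: endpoint recorded as highest concentration tested. Abbreviation: GI50, concentration required for 50% inhibition of growth.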 Calls of active or inactive are those of the source. No stated cut-off is given here; in the data, active = GI50 up to about 1.1 µM and inactive = higher.
Tests used:
Test in all cases: inhibition of tumour cell growth, NCI panel, 48 h
[1] = test system: SNB-75
[2] = test system: DU-145
[3] = test system: MDA-MB-435
[4] = test system: RXF 393
[5] = test system: A549
[6] = test system: SK-OV-3
[7] = test system: NCI-H522
[8] = test system: LOX IMVI
[9] = test system: CCRF-CEM
[10] = test system: HCC 2998
[11] = test system: SK-MEL-28
[12] = test system: A498
[13] = test system: SN12C
[14] = test system: HOP-92
[15] = test system: EKVX
[16] = test system: M14
[17] = test system: MDA-N
[18] = test system: RPMI-8226
[19] = test system: SF-295
[20] = test system: BT-549

Measured: GI50

CCOP(=O)(OCC)C(Nc1ccc(F)cc1)c1ccccc1 (stereo not drawn)
inactive: [1] > 100 µM | [2] > 100 µM | [3] > 100 µM | [4] > 100 µM | [5] > 100 µM | [6] > 100 µM | [7] 56.5 µM | [8] > 100 µM | [9] > 100 µM | [10] > 100 µM | [11] > 100 µM | [12] > 100 µM | [13] 43.8 µM | [14] 94.6 µM | [15] > 100 µM | [16] > 100 µM | [17] 79.3 µM | [18] > 100 µM | [19] > 100 µM | [20] 79.6 µM

CCOC(=O)CN1C(=O)c2cc([N+](=O)[O-])cc3cc([N+](=O)[O-])cc(c23)C1=O
inactive: [1] 84.3 µM | [2] > 25.3 µM | [3] 13.8 µM | [4] 11.9 µM | [5] > 100 µM | [6] > 95.7 µM | [7] 4.21 µM | [8] 4.1 µM | [9] 1.41 µM | [10] > 100 µM | [11] 49.3 µM | [12] > 100 µM | [13] 14.7 µM | [14] > 77.8 µM | [15] > 100 µM | [16] 24.7 µM | [17] 11 µM | [18] 19.6 µM | [19] 72.3 µM | [20] > 28.6 µM

Cc1ccnc2c1c(=O)c1ccccc1n2C
inactive: [1] 17.6 µM | [2] 52.2 µM | [3] 42.9 µM | [4] 33.3 µM | [6] 35.2 µM | [7] 19.1 µM | [8] 37.6 µM | [9] 47.2 µM | [10] 39.9 µM | [11] 43 µM | [12] 31.8 µM | [13] 30.5 µM | [14] 49.7 µM | [15] 30.8 µM | [16] 39 µM | [17] 34.3 µM | [18] 36.7 µM | [19] 37.5 µM | [20] 27.1 µM

CC(C)CC(NC(=O)C(CI)Cc1ccccc1)C(=O)Nc1ccccc1 (stereo not drawn)
inactive: [1] > 100 µM | [2] > 100 µM | [3] > 100 µM | [4] > 100 µM | [5] > 100 µM | [6] > 100 µM | [7] > 100 µM | [8] > 100 µM | [9] > 100 µM | [10] > 100 µM | [11] > 100 µM | [12] > 100 µM | [13] > 100 µM | [14] > 100 µM | [15] > 100 µM | [16] > 100 µM | [17] > 100 µM | [18] > 100 µM | [19] > 100 µM | [20] 7.76 µM

COc1ccc2c(c1)CC[C@@H]1[C@@H]2CC[C@]2(C)C(=O)/C(=C/c3ccncc3)C[C@@H]12
inactive: [1] 32.1 µM | [2] 38.8 µM | [3] 30.4 µM | [4] 18.2 µM | [5] 30.8 µM | [6] 32.9 µM | [7] 30.4 µM | [8] 37.8 µM | [9] > 100 µM | [10] 27.4 µM | [11] 33.6 µM | [12] 27.3 µM | [13] 55.6 µM | [14] 27.9 µM | [15] 53.6 µM | [16] 31.7 µM | [17] 42.6 µM | [18] 93.8 µM | [19] 22.4 µM | [20] 67.5 µM

COC(=O)C(CCC(=O)CCl)N1C(=O)c2ccccc2C1=O (stereo not drawn)
inactive: [1] 8.13 µM | [2] 16.9 µM | [3] 10.1 µM | [4] 2.39 µM | [5] 17.7 µM | [6] 16 µM | [7] 1.73 µM | [8] 1.57 µM | [9] 1.67 µM | [10] 8.18 µM | [11] 10.7 µM | [12] 19.5 µM | [13] 10.5 µM | [14] 5.78 µM | [15] 19.9 µM | [16] 5.27 µM | [17] 7.43 µM | [18] 3.37 µM | [19] 17.7 µM | [20] 8.97 µM

COc1c(C(=O)O)cccc1-c1cccc(C(=O)NCCN(CCNC(=O)c2cccc(-c3cccc(C(=O)O)c3OC)c2OC)CCNC(=O)c2cccc(-c3cccc(C(=O)O)c3OC)c2OC)c1OC
inactive: [1] 25.9 µM | [2] 39 µM | [3] 11.4 µM | [4] 28.6 µM | [5] 49.5 µM | [6] 33 µM | [7] 33.3 µM | [8] 32.3 µM | [9] 35.2 µM | [10] 31.7 µM | [11] 52.5 µM | [12] 31.8 µM | [13] 29.4 µM | [14] 67.1 µM | [15] 64.6 µM | [17] 5.58 µM | [18] 23.2 µM | [19] 40.5 µM | [20] 52.1 µM

Brc1ccc2[nH]cc(-c3csc(-c4ccccn4)n3)c2c1
inactive: [1] 16.9 µM | [2] 17.9 µM | [3] 41.8 µM | [4] 6.03 µM | [5] 14.5 µM | [6] 33 µM | [7] 8.95 µM | [8] 8.69 µM | [9] 13.2 µM | [10] 8.75 µM | [11] 53.1 µM | [12] 3.39 µM | [13] 14.4 µM | [14] 20.8 µM | [15] 9.44 µM | [16] 22.2 µM | [17] 27.6 µM | [18] 7.8 µM | [19] 6.68 µM | [20] > 89.3 µM

N#C/C(=C\c1ccc2[nH]ccc2c1)C(=O)NCCCCNC(=O)/C(C#N)=C/c1ccc2[nH]ccc2c1
inactive: [1] > 31.6 µM | [2] > 10 µM | [3] > 10 µM | [4] > 10 µM | [5] > 100 µM | [6] > 31.6 µM | [7] > 31.6 µM | [8] > 31.6 µM | [9] > 31.6 µM | [10] > 31.6 µM | [11] > 31.6 µM | [12] > 31.6 µM | [13] > 31.6 µM | [14] > 31.6 µM | [15] > 31.6 µM | [16] > 31.6 µM | [17] > 10 µM | [18] > 10 µM | [19] > 31.6 µM | [20] > 10 µM

O=[N+]([O-])c1ccc(C(Nc2ccccc2)c2ccc3cccnc3c2O)cc1 (stereo not drawn)
inactive: [1] 6.67 µM | [2] 9.14 µM | [3] 14.4 µM | [4] 5.15 µM | [5] 8.04 µM | [6] 23.8 µM | [7] 4.24 µM | [8] 6.5 µM | [9] 2.17 µM | [10] 12.9 µM | [11] 40.6 µM | [12] 24.1 µM | [13] 7.94 µM | [14] 7.87 µM | [15] 6.04 µM | [16] 9.4 µM | [17] 23.7 µM | [18] 5.13 µM | [19] 4.37 µM | [20] 10.3 µM

From ChEMBL document CHEMBL1201862, “PubChem BioAssay data set” (2004)
